US20260364047A1, “METHODS OF SWITCHING NEUROPSYCHIATRIC MEDICATIONS USING ULOTARONT” (Sumitomo Pharma America, Inc., priority 2022, published 2026)
Entries after “also recorded” stand apart in the source; their conditions may differ.

How the values were obtained:
[1] = Daily food intake of rats previously treated with olanzapine; settings: 3 mg/kg/day po
[2] = Liver triglycerides of rats previously treated with olanzapine; settings: 3 mg/kg po; prior olanzapine 3 mg/kg po
[3] = Changes in body weights of rats previously treated with olanzapine
[4] = Week 1 (Day 1-8), 3 mg/kg po, high-fat diet
[5] = Week 2 (Day 8-14), 3 mg/kg po, prior olanzapine 3 mg/kg po

Which “Food intake compared to vehicle treated rats (in words)” value [1] does the source give for `Cc1cc2c(s1)Nc1ccccc1N=C2N1CCN(C)CC1` [Olanzapine, olanzapine] here?
The value was “significantly increased”.

What about the “Liver triglycerides (μmol total), % vs Vehicle (A)” value [2] of the same compound?
The value was 100.4%.

And the “Liver triglycerides (μmol/g), % vs Vehicle (A)” value [2]?
Its value is 100.0%.

What about the “Liver triglycerides total, Mean” value [2] of the same compound?
Its value is 348 μmol total.

And the “Liver triglycerides, Mean” value [2]?
The value was 37.1 µmol/g.

And the “Increase in body weight, previously shown in-house” value ([3]; 3 mg/kg po, this model, earlier in-house experiments)?
The value was 4-6%.

And the “Body weight compared to vehicle treated rats (in words)” value ([3]; 3 mg/kg/day po)?
Its value is “An increase in body weight; also recorded: significantly increased body weight”.

What about the “Time to initial effects on body weight and food intake” value ([3]; 3 mg/kg/day po, as early as, following dosing) of the same compound?
The value was 2 to 3 days.

What about the “Changes in body weights, Difference vs Vehicle (A)” value [3, 4] of the same compound?
The value was 13.07 g.

And the “Changes in body weights, Mean” value [3, 4]?
Its value is 25.48 g.

And the “Changes in body weights, Difference vs Vehicle (A)” value [3, 5]?
Its value is 7.55 g.

What about the “Changes in body weights, Mean” value [3, 5] of the same compound?
The value was 16.70 g.
